Experimental data: paper PMC5421785, “Citrullination only infrequently impacts peptide binding to HLA class II MHC” (PLoS ONE, 2017)
Where two headings read alike, the source gives them in different places. Square brackets hold non-standard residues; d marks the D form. Peptide text beside a SMILES is read from it. Cit = NC(=O)NCCC[C@H](N)C(=O)O

How the values were obtained:
HLA-DRB1*01:01 = target: T1, HLA-DRB1*01:01 (Homo sapiens, UniProt P01903+P01911, A100R/D57E/F55L/F60I/F76Y/I96L/L162R/M171V/P40L/Q125E/R42F/V115G/Y59C); experiment: HLA class II peptide binding, inhibition of radiolabeled peptide binding to purified MHC; settings: read-out: DRB1*01:01 binding capacity, Cit peptide (IC50 nM)
T1 construct: EBV transformed homozygous cell lines were used as sources of MHC molecules; endogenous in cells; host or cells: EBV transformed homozygous cell lines

HLA-DRB1*04:01 = target: T2, HLA-DRB1*04:01 (Homo sapiens, UniProt P01903+P01911, A100K/A169T/F76Y/I96L/K127E/L162R/M171V/N62H/P40V/Q125Y/R42H/S133A/S149N/S66Y/V115G/V209L/W38E); experiment: as above; settings: read-out: DRB1*04:01 binding capacity, Cit peptide (IC50 nM)
T2 construct: EBV transformed homozygous cell lines were used as sources of MHC molecules; endogenous in cells; host or cells: EBV transformed homozygous cell lines

[1] = citrullinated 15-mer (X), purified MHC, inhibition of radiolabeled peptide binding, dash = IC50 >40,000 nM
[2] = citrullinated 15-mer peptide (X = citrulline), purified HLA-DRB1*01:01
[3] = citrullinated 15-mer peptide (X = citrulline), purified HLA-DRB1*04:01

IC50 (HLA-DRB1*01:01; [1]) | IC50 (HLA-DRB1*04:01; [1]) | IC50 (HLA-DRB1*01:01; [2]) | IC50 (HLA-DRB1*04:01; [3]) | Compound
19 nM | 7760 nM | – | – | CC(C)C[C@H](NC(=O)[C@H](CC(N)=O)NC(=O)[C@H](CCCCN)NC(=O)[C@H](C)NC(=O)[C@H](C)NC(=O)[C@@H](NC(=O)[C@H](CO)NC(=O)[C@H](CCC(=O)O)NC(=O)[C@H](Cc1ccc(O)cc1)NC(=O)[C@H](CCC(N)=O)NC(=O)[C@H](CCC(N)=O)NC(=O)[C@H](CCCNC(N)=O)NC(=O)[C@@H](NC(=O)[C@@H](N)CC(=O)O)C(C)C)C(C)C)C(=O)N[C@@H](CCC(N)=O)C(=O)O [DVXQQYESVAAKNLQ] (H-DV[Cit]QQYESVAAKNLQ-OH)
– | – | 2270 nM | 33300 nM | CC(C)[C@H](NC(=O)[C@H](CC(=O)O)NC(=O)CNC(=O)[C@H](CCCNC(N)=O)NC(=O)[C@@H](N)CC(=O)O)C(=O)NCC(=O)N[C@@H](CCC(=O)O)C(=O)N[C@@H](CCCCN)C(=O)NCC(=O)N1CCC[C@H]1C(=O)N[C@@H](CCC(=O)O)C(=O)NCC(=O)N[C@@H](C)C(=O)N1CCC[C@H]1C(=O)NCC(=O)O [DXGDVGEKGPEGAPG] (H-D[Cit]GDVGEKGPEGAPG-OH)
686 nM | 1280 nM | – | – | CSCC[C@H](NC(=O)[C@H](CCC(=O)O)NC(=O)[C@H](CCC(=O)O)NC(=O)[C@@H](N)CCC(=O)O)C(=O)N[C@@H](CCCNC(=N)N)C(=O)N[C@@H](CCC(=O)O)C(=O)N[C@@H](CC(C)C)C(=O)N[C@@H](CCCNC(=N)N)C(=O)N[C@@H](CCCNC(N)=O)C(=O)N[C@@H](CCC(N)=O)C(=O)N[C@H](C(=O)N[C@@H](CC(=O)O)C(=O)N[C@@H](CCC(N)=O)C(=O)N[C@@H](CC(C)C)C(=O)N[C@H](C(=O)O)[C@@H](C)O)C(C)C [EEEMRELRXQVDQLT] (H-EEEMRELR[Cit]QVDQLT-OH)
1490 nM | 4740 nM | – | – | CSCC[C@H](NC(=O)[C@H](CCC(=O)O)NC(=O)[C@H](CCC(=O)O)NC(=O)[C@@H](N)CCC(=O)O)C(=O)N[C@@H](CCCNC(=N)N)C(=O)N[C@@H](CCC(=O)O)C(=O)N[C@@H](CC(C)C)C(=O)N[C@@H](CCCNC(N)=O)C(=O)N[C@@H](CCCNC(=N)N)C(=O)N[C@@H](CCC(N)=O)C(=O)N[C@H](C(=O)N[C@@H](CC(=O)O)C(=O)N[C@@H](CCC(N)=O)C(=O)N[C@@H](CC(C)C)C(=O)N[C@H](C(=O)O)[C@@H](C)O)C(C)C [EEEMRELXRQVDQLT] (H-EEEMREL[Cit]RQVDQLT-OH)
1250 nM | 6570 nM | – | – | CSCC[C@H](NC(=O)[C@H](CCC(=O)O)NC(=O)[C@H](CCC(=O)O)NC(=O)[C@@H](N)CCC(=O)O)C(=O)N[C@@H](CCCNC(N)=O)C(=O)N[C@@H](CCC(=O)O)C(=O)N[C@@H](CC(C)C)C(=O)N[C@@H](CCCNC(=N)N)C(=O)N[C@@H](CCCNC(=N)N)C(=O)N[C@@H](CCC(N)=O)C(=O)N[C@H](C(=O)N[C@@H](CC(=O)O)C(=O)N[C@@H](CCC(N)=O)C(=O)N[C@@H](CC(C)C)C(=O)N[C@H](C(=O)O)[C@@H](C)O)C(C)C [EEEMXELRRQVDQLT] (H-EEEM[Cit]ELRRQVDQLT-OH)
869 nM | 14000 nM | – | – | CSCC[C@H](NC(=O)[C@H](CCC(=O)O)NC(=O)[C@@H](N)CCC(=O)O)C(=O)N[C@@H](CC(C)C)C(=O)N[C@@H](CCC(N)=O)C(=O)N[C@@H](CCCNC(N)=O)C(=O)N[C@@H](CCC(=O)O)C(=O)N[C@@H](CCC(=O)O)C(=O)N[C@@H](C)C(=O)N[C@@H](CCC(=O)O)C(=O)N[C@@H](CC(N)=O)C(=O)N[C@H](C(=O)N[C@@H](CC(C)C)C(=O)N[C@@H](CCC(N)=O)C(=O)N[C@@H](CO)C(=O)O)[C@@H](C)O [EEMLQXEEAENTLQS] (H-EEMLQ[Cit]EEAENTLQS-OH)
– | – | 470 nM | 4300 nM | CC[C@H](C)[C@H](NC(=O)[C@@H](N)CCC(=O)O)C(=O)N[C@@H](C)C(=O)N[C@H](C(=O)N[C@@H](Cc1ccc(O)cc1)C(=O)N[C@@H](CCCNC(=N)N)C(=O)N[C@@H](CCCCN)C(=O)N[C@@H](CC(C)C)C(=O)N[C@@H](CC(C)C)C(=O)N[C@@H](CCC(=O)O)C(=O)NCC(=O)N[C@@H](CCC(=O)O)C(=O)N[C@@H](CCC(=O)O)C(=O)N[C@@H](CO)C(=O)N[C@@H](CCCNC(N)=O)C(=O)O)[C@@H](C)O [EIATYRKLLEGEESX] (H-EIATYRKLLEGEES[Cit]-OH)
– | – | 360 nM | 3810 nM | CC[C@H](C)[C@H](NC(=O)[C@@H](N)CCC(=O)O)C(=O)N[C@@H](C)C(=O)N[C@H](C(=O)N[C@@H](Cc1ccc(O)cc1)C(=O)N[C@@H](CCCNC(N)=O)C(=O)N[C@@H](CCCCN)C(=O)N[C@@H](CC(C)C)C(=O)N[C@@H](CC(C)C)C(=O)N[C@@H](CCC(=O)O)C(=O)NCC(=O)N[C@@H](CCC(=O)O)C(=O)N[C@@H](CCC(=O)O)C(=O)N[C@@H](CO)C(=O)N[C@@H](CCCNC(=N)N)C(=O)O)[C@@H](C)O [EIATYXKLLEGEESR] (H-EIATY[Cit]KLLEGEESR-OH)
295 nM | 26700 nM | – | – | CC[C@H](C)[C@H](NC(=O)[C@H](Cc1ccc(O)cc1)NC(=O)[C@H](CC(N)=O)NC(=O)[C@H](C)NC(=O)[C@H](Cc1ccccc1)NC(=O)[C@H](CCCNC(N)=O)NC(=O)[C@H](CC(=O)O)NC(=O)[C@H](CC(N)=O)NC(=O)[C@H](CC(C)C)NC(=O)[C@H](CCC(=O)O)NC(=O)[C@H](CCC(N)=O)NC(=O)[C@H](CC(C)C)NC(=O)[C@@H](N)CCC(=O)O)C(=O)N[C@@H](CC(=O)O)C(=O)N[C@@H](CCCCN)C(=O)O [ELQELNDXFANYIDK]
1160 nM | 8090 nM | – | – | CC(C)C[C@H](NC(=O)[C@H](CCC(N)=O)NC(=O)[C@H](CC(=O)O)NC(=O)[C@@H](NC(=O)[C@H](CCC(N)=O)NC(=O)[C@H](CCCNC(=N)N)NC(=O)[C@H](CCCNC(=N)N)NC(=O)[C@H](CC(C)C)NC(=O)[C@@H](N)CCC(=O)O)C(C)C)C(=O)N[C@H](C(=O)N[C@@H](CC(N)=O)C(=O)N[C@@H](CC(=O)O)C(=O)N[C@@H](CCCCN)C(=O)N[C@@H](C)C(=O)N[C@@H](CCCNC(N)=O)C(=O)O)[C@@H](C)O [ELRRQVDQLTNDKAX] (H-ELRRQVDQLTNDKA[Cit]-OH)
2240 nM | 11000 nM | – | – | CC(C)C[C@H](NC(=O)[C@H](CCC(N)=O)NC(=O)[C@H](CC(=O)O)NC(=O)[C@@H](NC(=O)[C@H](CCC(N)=O)NC(=O)[C@H](CCCNC(N)=O)NC(=O)[C@H](CCCNC(=N)N)NC(=O)[C@H](CC(C)C)NC(=O)[C@@H](N)CCC(=O)O)C(C)C)C(=O)N[C@H](C(=O)N[C@@H](CC(N)=O)C(=O)N[C@@H](CC(=O)O)C(=O)N[C@@H](CCCCN)C(=O)N[C@@H](C)C(=O)N[C@@H](CCCNC(=N)N)C(=O)O)[C@@H](C)O [ELRXQVDQLTNDKAR] (H-ELR[Cit]QVDQLTNDKAR-OH)
614 nM | 13400 nM | – | – | CC(C)C[C@H](NC(=O)[C@H](CCC(N)=O)NC(=O)[C@H](CC(=O)O)NC(=O)[C@@H](NC(=O)[C@H](CCC(N)=O)NC(=O)[C@H](CCCNC(=N)N)NC(=O)[C@H](CCCNC(N)=O)NC(=O)[C@H](CC(C)C)NC(=O)[C@@H](N)CCC(=O)O)C(C)C)C(=O)N[C@H](C(=O)N[C@@H](CC(N)=O)C(=O)N[C@@H](CC(=O)O)C(=O)N[C@@H](CCCCN)C(=O)N[C@@H](C)C(=O)N[C@@H](CCCNC(=N)N)C(=O)O)[C@@H](C)O [ELXRQVDQLTNDKAR] (H-EL[Cit]RQVDQLTNDKAR-OH)
– | – | 31400 nM | > 40000 nM | CSCC[C@H](NC(=O)[C@@H]1CCCN1C(=O)CNC(=O)[C@@H]1CCCN1C(=O)[C@H](CO)NC(=O)CNC(=O)[C@H](CC(N)=O)NC(=O)[C@@H](N)CCC(=O)O)C(=O)NCC(=O)N1CCC[C@H]1C(=O)N[C@@H](CCCNC(N)=O)C(=O)NCC(=O)N[C@@H](CC(C)C)C(=O)N1CCC[C@H]1C(=O)NCC(=O)O [ENGSPGPMGPXGLPG] (H-ENGSPGPMGP[Cit]GLPG-OH)
5380 nM | > 40000 nM | – | – | CC(C)C[C@H](NC(=O)[C@H](CCCNC(N)=O)NC(=O)[C@H](CO)NC(=O)[C@H](CCCCN)NC(=O)CNC(=O)[C@H](CCC(N)=O)NC(=O)CNC(=O)[C@H](CCCCN)NC(=O)[C@H](CC(C)C)NC(=O)[C@H](CCC(N)=O)NC(=O)[C@@H](N)CCC(=O)O)C(=O)NCC(=O)N[C@@H](CC(=O)O)C(=O)N[C@@H](CC(C)C)C(=O)N[C@@H](Cc1ccc(O)cc1)C(=O)O [EQLKGQGKSXLGDLY]
– | – | 1120 nM | > 40000 nM | C[C@H](NC(=O)CNC(=O)[C@H](C)NC(=O)[C@@H]1CCCN1C(=O)CNC(=O)[C@@H](NC(=O)[C@H](CCCNC(=N)N)NC(=O)CNC(=O)[C@H](CCCNC(=N)N)NC(=O)[C@@H](N)CCC(=O)O)[C@@H](C)O)C(=O)N[C@@H](C)C(=O)NCC(=O)N[C@@H](C)C(=O)N[C@@H](CCCNC(N)=O)C(=O)NCC(=O)O [ERGRTGPAGAAGAXG] (H-ERGRTGPAGAAGA[Cit]G-OH)
– | – | 3910 nM | > 40000 nM | C[C@H](NC(=O)CNC(=O)[C@H](C)NC(=O)[C@@H]1CCCN1C(=O)CNC(=O)[C@@H](NC(=O)[C@H](CCCNC(N)=O)NC(=O)CNC(=O)[C@H](CCCNC(=N)N)NC(=O)[C@@H](N)CCC(=O)O)[C@@H](C)O)C(=O)N[C@@H](C)C(=O)NCC(=O)N[C@@H](C)C(=O)N[C@@H](CCCNC(=N)N)C(=O)NCC(=O)O [ERGXTGPAGAAGARG] (H-ERG[Cit]TGPAGAAGARG-OH)
– | – | 9530 nM | 3220 nM | CSCC[C@H](NC(=O)[C@H](CCC(=O)O)NC(=O)[C@H](CCCNC(N)=O)NC(=O)[C@H](CCSC)NC(=O)[C@H](CCC(N)=O)NC(=O)[C@H](CCCNC(=N)N)NC(=O)[C@@H](N)CCC(=O)O)C(=O)N[C@@H](CCC(=O)O)C(=O)N[C@@H](CCC(=O)O)C(=O)N[C@@H](CC(N)=O)C(=O)N[C@@H](Cc1ccccc1)C(=O)N[C@@H](C)C(=O)N[C@H](C(=O)N[C@@H](CCC(=O)O)C(=O)N[C@@H](C)C(=O)O)C(C)C [ERQMXEMEENFAVEA] (H-ERQM[Cit]EMEENFAVEA-OH)
